Like-named read-outs stand apart in the source and are kept apart here.
Key:
[1] = Plasma glucose levels in mice after oral administration; type: in vivo; details: 2 mg/Kg
Procedure: FIG. 8 depicts the glucose levels in mice plasma after oral administration of 2 mg/Kg of compound 111. Compound 111 at 2 mg/kg was orally administrated to mice. Blood samples were taken at different time points thereafter and Glucose level was determined.

[2] = Glucose levels and Maximum Tolerated Dose in mice at different diets; type: in vivo
From the text: Glucose Levels as Measured in Mice after Different Dosages of Compound 111 at Different Diets.

[3] = system: SDH-KO-HRAS cells (SDHB-deficient); test: Cellular / differential toxicity assay (CellTiter-Glo, 3 days); type: cell-based, murine; details: for EC50: Mus musculus, 72 h, SDH-KO cells
Procedure, shortened: (§1)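 Isogenic SDHB-deficient (HRAS-transformed SDH-KO) and SDH-WT cells grown in DMEM-F12 with 1 mM glutamine and 3% FBS, plated with compound (10-point dilution from 10 uM to 0.0065 uM or lower) for 3 days at 37 °C, 5% CO2. Viability by CellTiter-Glo luminescence; EC50 calculated.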

SDH-WT cells = test: as above; type: cell-based, murine; details: Mus musculus, 72 h, SDH-WT cells
Procedure, shortened: as §1

[4] = system: SDH-KO cells (SDH-deficient tumors); test: Tumor volume of SDH-KO cells vs. time in mice on ketogenic diet; type: in vivo; details: treated two weeks post-injection, prior to tumor formation
From the text: FIG. 10 depicts the tumor volume of SDH-KO cells vs. time in mice on ketogenic diet, treated for two weeks post-injection, but prior to tumor formation.

[5] = system: MDA-MB-468 (Breast cancer); test: Toxicity assay with or without rotenone; type: cell-based; details: Homo sapiens, 72 hours
Procedure: (§2) Toxicity assay: Cells were growing in 96 well plates in DMEM F12 with 17 mM glucose, 0.5 mM Sodium Pyruvate, 1 mM Glutamine and 3% FBS. The cells were treated with the indicated compounds (10 different concentrations) with or without 25 nM rotenone. Viability was determined after 72 hours of treatment using CellTiter Glo reagent (Promega). EC50 was calculated using Prism software.

HCT116 (Colon cancer) = test: Toxicity assay with or without rotenone; type: cell-based; details: Homo sapiens, HCT-116, 72 hours
Procedure: as §2

MM.1S (Multiple myeloma) = test: Toxicity assay with or without rotenone; type: cell-based; details: Homo sapiens, MM1.S, 72 hours
Procedure: as §2

[6] = system: Panc1 (Pancreatic cancer); test: Toxicity assay with or without rotenone; type: cell-based; details: Homo sapiens, PANC-1, 72 hours
Procedure: as §2

[7] = system: MiaPaca2 (Pancreatic cancer); test: Toxicity assay with or without rotenone; type: cell-based; details: Homo sapiens, MIA PaCa-2, 72 hours
Procedure: as §2

[8] = system: m+3 lactate secretion (glycolysis) in SDH-WT cells; test: Glycolysis inhibition (IC50 Lactate m+3); type: cell-based; details: 1 h, 25 mM 13C-glucose, one hour
Procedure: (§3) Glycolysis Inhibition (IC50 Lactate m+3)
(§4) Cell were plated in DMEM, 25 mM Glucose, 1 mM Pyruvate, 1 mM Glutamine and 10% Dialyzed serum in 96 well plates in triplicates. The day after the medium was replaced to fresh medium with 25 mM ^13C-glucose and treated with different concentrations of the compounds as indicated. One hour later the medium was collected and the level of m+3 lactate was determined by LC-MS. The IC50 of inhibition of m+3 lactate secretion into the medium was calculated with Prism.

[9] = system: m+3 lactate secretion (glycolysis) in SDH-KO cells; test: Glycolysis inhibition (IC50 Lactate m+3); type: cell-based; details: 1 h, 25 mM 13C-glucose, one hour
Procedure: as §3, §4

[10] = PK profile (plasma and brain concentration); type: in vivo
Procedure: FIG. 14 describes the pharmacokinetics of compound 332.
FIG. 14A depicts the Mean Plasma Concentration of Compound 332 after IP7, IV bolus1 and PO2 Dosing. FIG. 14B depicts the Mean Brain Concentration of Compound 332 after IP Dosing at 2.50 mg/kg and FIG. 14C depicts the Mean Brain Concentration of Compound 332 after IV bolus Dosing at 2.50 mg/kg.

[11] = toxicity, 3 days, CellTiter-Glo, read-out: EC50 (uM) SDH-KO-HTAS-C17
[12] = toxicity, 3 days, CellTiter-Glo, read-out: EC50 (uM) SDH-WT
[13] = 72 hours, Example 7, read-out: EC50 Tox

With CC(=O)Nc1ccc(CCNc2ncnc3c2sc2nc4c(cc23)COC(C)(C)C4)cc1 [Compound 111] the “level of glucose in the plasma” value [1] was “increase”, the “elevation in plasma glucose levels on ketogenic diet” value ([2]; ketogenic diet) was “delayed” and the “Maximum Tolerated Dose (MTD) on ketogenic diet” value ([2]; ketogenic diet vs other diet) was “doubled”. The “tolerability on ketogenic diet” value ([2]; ketogenic diet, two weeks of treatment) was “up to 4 mg/Kg”, the EC50 [3, 11] was < 1000 nM and the EC50 (SDH-WT cells; [12]) was > 10 µM. The “tumor onset and growth (tumor volume vs. time)” value [4] was “delays tumor onset and growth”, the EC50 ([5]; MDA-MB-468, with 25 nM rotenone, read-out: EC50 (nM) with Rotenone) was 1400 nM and the EC50 ([5]; MDA-MB-468, without rotenone, read-out: EC50) was > 30000 nM. It also gave an EC50 (HCT116 (Colon cancer); HCT116, with 25 nM rotenone, read-out: EC50 (nM) with Rotenone) of 510 nM, an EC50 (HCT116 (Colon cancer); HCT116, without rotenone, read-out: EC50) of 9700 nM and an EC50 (MM.1S (Multiple myeloma); with 25 nM rotenone, read-out: EC50 (nM) with Rotenone) of 52 nM. It also gave an EC50 (MM.1S (Multiple myeloma); without rotenone, read-out: EC50) of 79000 nM, an EC50 ([6]; Panc1, with 25 nM rotenone, read-out: EC50 (nM) with Rotenone) of 91 nM and an EC50 ([6]; Panc1, without rotenone, read-out: EC50) of 136000 nM. The EC50 ([7]; MiaPaca2, with 25 nM rotenone, read-out: EC50 (nM) with Rotenone) was 61 nM and the EC50 ([7]; MiaPaca2, without rotenone, read-out: EC50) was 37000 nM.

With COCc1c2c(nc3sc4c(NCCc5ccc6[nH]cnc6c5)ncnc4c13)CC(C)(C)OC2 [Compound 308, N-(2-(1H-Benzo[d]imidazol-5-yl)ethyl)-11-(methoxymethyl)-8,8-dimethyl-7,10-dihydro-8H-pyrano[3″,4″:5′,6′]pyrido[3′,2′:4,5]thieno[3,2-d]pyrimidin-4-amine] the EC50 [3, 13] was 0.004 nM, the EC50 [3, 11] was < 1000 nM and the “differential effect between SDH-WT and KO cells (EC50 Tox)” value ([3]; cell viability, Example 7) was > 500,000 folds. For the same compound, the EC50 (SDH-WT cells; [13]) was 2.17 µM, the EC50 (SDH-WT cells; [12]) was 1 to 3 µM and the IC50 [8] was 0.15 nM. For the same compound, the IC50 [9] was 0.03 nM.

With COCCOCc1c2c(nc3sc4c(NCCc5ccc6[nH]cnc6c5)ncnc4c13)CC(C)(C)OC2 [Compound 332] the oral bioavailability ([10]; PO dosing vs IV bolus, plasma) was “low”, the brain penetration ([10]; brain concentration after IP and IV bolus dosing at 2.50 mg/kg) was “brain penetrant” and the EC50 [3, 11] was < 1000 nM. The “differential toxicity, SDH-KO cells compared to SDH-WT cells” value ([3]; viability EC50s, 72 hours, Example 6) was 235 and the EC50 (SDH-WT cells; [12]) was 1 to 3 µM.

From patent US20230084927A1, “GLUCOSE UPTAKE INHIBITORS AND USES THEREOF” (METABOMED LTD., priority 2019, published 2023)
